According to paper PMC11855827, “High-Throughput Screening of Five Compound Libraries for Anthelmintic Activity and Toxicity Leads to the Discovery of Two Flavonoid Compounds” (International Journal of Molecular Sciences, 2025):
Where “and” joins values, the source holds several entries; their conditions need not be identical. Equal values may be shown once.

Test system: C. elegans
Details: Table S2, C. elegans SS assay, 110 μM, averages of 4 data points

Compound	Percentage of motility inhibition 0 h	Percentage of motility inhibition 24 h
C[C@@H]1O[C@@H](OC[C@H]2O[C@@H](Oc3c(-c4ccc(O)cc4)oc4cc(O)cc(O)c4c3=O)[C@H](O)[C@@H](O)[C@@H]2O)[C@H](O)[C@H](O)[C@H]1O [Nicotiflorin]	4%	40%
CC(=O)O[C@@H](C[C@@H](C)C1=C2C[C@H](O)[C@H]3[C@@]4(C)CCC(=O)C(C)(C)[C@@H]4CC[C@]3(C)[C@@]2(C)CC1=O)[C@H]1OC1(C)C [Alisol C 23-acetate]	0%	17%
C1CNCCN1.O.O.O.O.O.O [Piperazine (hexahydrate)]	58%	12%
CC1(C)CC(NC(=O)C(=O)Nc2ccc(Cl)cc2)CC(C)(C)N1 [NBD‐556]	45%	11%
C[C@H]1[C@H](C)CC[C@]2(C)CC[C@]3(C)C(=CC(=O)[C@@H]4[C@@]5(C)CC[C@@H](O)[C@](C)(C(=O)O)[C@@H]5CC[C@]43C)[C@H]12 [11-Keto-beta-boswellic acid]	2%	0%
CN1Cc2c(ccc3c2OCO3)[C@@]2(C)[C@@H](O)Cc3cc4c(cc3[C@@H]12)OCO4 [Corynoline]	13%	0%
CC1(C)[C@@H](O)CC[C@]2(C)[C@H]3C(=O)C=C4[C@@H]5C[C@@](C)(C(=O)O)CC[C@]5(C)CC[C@@]4(C)[C@]3(C)CC[C@@H]12 [18β-Glycyrrhetinic acid]	15% and 6%	–
C=CC1CNC(=S)O1 (stereo not drawn) [Epigoitrin]	6%	0%
COc1ccc(-c2oc3c(CC=C(C)C)c(O[C@@H]4O[C@H](CO)[C@@H](O)[C@H](O)[C@H]4O)cc(O)c3c(=O)c2O)cc1 [Icariside I]	0%	23%
NC(=O)c1cc([N+](=O)[O-])cc([N+](=O)[O-])c1 [Nitromide]	25%	12%
COc1ccc(CCNC(=O)/C=C/c2ccc(O)c(O)c2)cc1 [N‐Caffeoyl O‐methyltyramine]	0%	0%
CCCCCCCCCCCCCCCC(=O)NCc1ccccc1 [N‐Benzylpalmitamide]	0%	20%
O=C(O)c1cc(=O)c2ccccc2[nH]1 [Kynurenic acid]	17%	0%
Cl.NC12CC3CC(CC(C3)C1)C2 [Amantadine (hydrochloride)]	42%	2%
CC(C)(O)[C@H]1CC[C@@](C)([C@H]2CC[C@]3(C)[C@@H]2[C@H](O)C[C@@H]2[C@@]4(C)CC[C@H](O)C(C)(C)[C@@H]4[C@@H](O[C@@H]4O[C@H](CO)[C@@H](O)[C@H](O)[C@H]4O)C[C@]23C)O1 [Pseudoginsenoside RT5]	0%	16%
O=C([O-])c1ccc[n+]([C@@H]2O[C@H](CO)[C@@H](O)[C@H]2O)c1 [Nicotinic acid riboside]	5%	0%
CN1[C@@H]2CC[C@H]1C[C@@H](OC(=O)[C@H](CO)c1ccccc1)C2 [L-Hyoscyamine]	55%	28%
CO/N=C(\C(=O)N[C@@H]1C(=O)N2C(C(=O)[O-])=C(CSC(=O)c3ccco3)CS[C@H]12)c1csc(N)n1.[Na+] [Ceftiofur (sodium)]	17%	1%
COc1cc(O)c(CC=C(C)C)c2c1C(=O)C[C@@H](c1ccc(O)cc1)O2 [(2S)‐Isoxanthohumol]	0%	2%
CC1=CC[C@@H](C(C)(C)O)CC1 [(-)-α-Terpineol]	15%	17%
O=c1cc(-c2ccc(O)c(O)c2)oc2cc(O[C@@H]3O[C@H](CO)[C@@H](O)[C@H](O)[C@H]3O)cc(O)c12 [Cynaroside]	20%	0%
Kukoamine B	8%	0%
Nc1nc(/C(=C/CC(=O)O)C(=O)N[C@@H]2C(=O)N3C(C(=O)O)=CCS[C@H]23)cs1.O.O [Ceftibuten (dihydrate)]	19%	5%

Compound	Percentage of motility inhibition 0 h	Percentage of motility inhibition 24 h
Inulin	4%	17%
Cn1nnc(-c2ccc(-c3ccc(N4C[C@H](COP(=O)(O)O)OC4=O)cc3F)cn2)n1 [Tedizolid (phosphate)]	10%	12%
C[C@@H](CO[C@@H]1O[C@H](CO)[C@@H](O)[C@H](O)[C@H]1O)[C@@H]1CC[C@@]2(CC[C@]3(C)[C@H](CC[C@@H]4[C@@]5(C)CC[C@H](O[C@@H]6O[C@H](CO)[C@@H](O)[C@H](O)[C@H]6O[C@@H]6O[C@H](CO)[C@@H](O)[C@H](O)[C@H]6O)[C@@](C)(CO[C@@H]6O[C@H](CO)[C@@H](O)[C@H](O)[C@H]6O)[C@@H]5CC[C@]43C)[C@H]2O)CO1 [Hosenkoside K]	10%	2%
Capreomycin (sulfate)	12%	0%
Cc1ccc(Nc2cc(-c3cccc(N4C(=O)c5ccccc5C4=O)c3)ncn2)cc1NS(C)(=O)=O [CDK9‐IN‐1]	54%	3%
CC(C)(C)C(=O)OCOC(=O)[C@@H]1N2C(=O)[C@@H](N=CN3CCCCCC3)[C@H]2SC1(C)C.Cl [Pivmecillinam (hydrochloride)]	12%	0%
NC[C@H]1O[C@H](O[C@H]2[C@H](O[C@@H]3O[C@H](CO)[C@@H](O)[C@H]3O)[C@@H](O)[C@H](N)C[C@@H]2N)[C@H](N)[C@@H](O)[C@@H]1O.O=S(=O)(O)O [Ribostamycin (sulfate)]	33%	13%
C=C(C(=O)O)[C@H]1CC[C@H](C)[C@@H]2CC(=O)C(C)=C2C1 [Rupestonic acid]	0%	8%
C=C[C@H]1[C@H](O[C@@H]2O[C@H](CO)[C@@H](O)[C@H](O)[C@H]2OC(=O)c2c(O)cc(O)cc2-c2cccc(O)c2)OC=C2C(=O)OCC[C@]21O [Amaroswerin]	0%	0%
C[N+]1(C)CCC[C@H]1C(=O)[O-].Cl [Stachydrine hydrochloride]	15%	26%
CCc1c2c(nc3ccc(OC(=O)N4CCC(N5CCCCC5)CC4)cc13)-c1cc3c(c(=O)n1C2)COC(=O)[C@]3(O)CC.Cl [Irinotecan (hydrochloride)]	0%	11%
C[C@@H]1O[C@@H](O[C@H]2C[C@@H](O)[C@]3(CO)[C@H]4[C@H](O)C[C@]5(C)[C@@H](C6=CC(=O)OC6)CC[C@]5(O)[C@@H]4CC[C@]3(O)C2)[C@H](O)[C@H](O)[C@H]1O.O.O.O.O.O.O.O.O [Ouabain (Octahydrate)]	0%	2%
C[C@@H]1O[C@@H](O[C@H]2[C@H](Oc3c(-c4ccc(O)cc4)oc4cc(O)cc(O)c4c3=O)O[C@H](CO)[C@@H](O)[C@@H]2O)[C@H](O)[C@H](O)[C@H]1O [Kaempferol 3‐neohesperidoside]	17%	10%
O=C1CC[C@H](NC(=O)Cc2ccccc2)C(=O)N1 [Antineoplaston A10]	0%	0%
NC(=O)[C@@H]1CC[C@@H]2CN1C(=O)N2OS(=O)(=O)[O-].[Na+] [Avibactam (sodium)]	0%	8%
COc1ccc(/C=C/C(=O)O[C@@H]2[C@H](O[C@@H]3O[C@@H](C)[C@H](O)[C@@H](O)[C@H]3O)[C@@H](O[C@@H]3O[C@@H](C)[C@H](O[C@@H]4OC[C@@H](O[C@@H]5O[C@H](CO)[C@H](O)[C@H](O)[C@H]5O)[C@H](O)[C@H]4O)[C@@H](O)[C@H]3O)[C@H](OC(=O)[C@]34CCC(C)(C)C[C@H]3C3=CC[C@@H]5[C@@]6(C)C[C@H](O)[C@H](O[C@@H]7O[C@H](CO)[C@@H](O)[C@H](O)[C@H]7O)[C@@](C)(C(=O)O)[C@@H]6CC[C@@]5(C)[C@]3(CO)CC4)O[C@@H]2C)cc1 [Onjisaponin B]	30%	33%
C=CC1=C(C)c2cc3[n-]c(cc4[n-]c(cc5nc(cc1n2)C(C)=C5C=C)c(C)c4CCC(=O)O)c(CCC(=O)O)c3C.[Fe+2] [Ferroheme]	0%	0%
C=C1C[C@@]2(O)O[C@@]3(C[C@H]2C(C)C)[C@@H](C)CC[C@@H]13 [Curcumol]	8%	12%
Cl.c1cc2c(c3c1CC1c4cc5c(cc4CCN1C3)OCO5)OCO2 (racemic) [(±)‐Stylopine (hydrochloride)]	0%	3%
CC(C)=CCC[C@H](C)[C@@H]1CC[C@]2(C)C3=C(CC[C@@]12C)[C@@]1(C)CC[C@H](O)C(C)(C)[C@@H]1CC3 [Tirucallol]	12%	39%
CN1[C@H]2C[C@H](OC(=O)[C@H](CO)c3ccccc3)C[C@@H]1[C@@H](O)C2 (racemic) [Racanisodamine]	–	0% and 6%
COc1cc2c(cc1OC)[C@H]1Cc3ccc(OC)c(OC)c3CN1CC2 [D‐Tetrahydropalmatine]	0%	0%
CCN(CC)C(=O)c1cccc(C)c1 [DEET]	59%	25%
